Results from patent US12208105B2, “Methods for attenuating graft-versus-host disease and opportunistic infections” (priority 2018, dated 2025).
Like-named read-outs stand apart in the source and are kept apart here.

Tests used:
donor Tcon accumulation = assay: Organ eGFP quantification (donor Tcon accumulation, anti-eGFP ELISA); assay type: in vivo, mouse
[1] = system: human PBMC into NSG xenogeneic aGVHD system; assay: Xenogeneic aGVHD, human PBMC into NSG mice, cells incubated ex vivo; assay type: in vivo, mouse; set-up: survival times: dose or concentration left out as unconfirmed
CCR7 [2] = biological target: T1, CCR7 (Homo sapiens, UniProt P32248); assay: HTS primary reporter assay, human CCR7; assay type: cell-based
T1 sequence (P32248 25-378): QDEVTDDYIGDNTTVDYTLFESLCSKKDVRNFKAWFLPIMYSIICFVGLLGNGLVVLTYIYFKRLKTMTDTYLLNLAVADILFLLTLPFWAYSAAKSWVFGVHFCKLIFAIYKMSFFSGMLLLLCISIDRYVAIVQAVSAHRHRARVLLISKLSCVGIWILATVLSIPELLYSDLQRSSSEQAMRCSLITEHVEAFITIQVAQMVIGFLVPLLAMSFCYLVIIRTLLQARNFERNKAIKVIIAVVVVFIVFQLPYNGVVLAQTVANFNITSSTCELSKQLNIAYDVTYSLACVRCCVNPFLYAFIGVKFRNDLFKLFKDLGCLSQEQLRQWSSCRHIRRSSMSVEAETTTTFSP

[3] = system: B6 into BALB/c aGVHD model; assay: aGVHD, B6 into BALB/c MHC mismatched allograft, Tcons incubated ex vivo; assay type: in vivo, mouse
serum albumin = serum albumin (Homo sapiens, UniProt P02768); details: cited from earlier work
serum albumin, sequence (P02768 25-609): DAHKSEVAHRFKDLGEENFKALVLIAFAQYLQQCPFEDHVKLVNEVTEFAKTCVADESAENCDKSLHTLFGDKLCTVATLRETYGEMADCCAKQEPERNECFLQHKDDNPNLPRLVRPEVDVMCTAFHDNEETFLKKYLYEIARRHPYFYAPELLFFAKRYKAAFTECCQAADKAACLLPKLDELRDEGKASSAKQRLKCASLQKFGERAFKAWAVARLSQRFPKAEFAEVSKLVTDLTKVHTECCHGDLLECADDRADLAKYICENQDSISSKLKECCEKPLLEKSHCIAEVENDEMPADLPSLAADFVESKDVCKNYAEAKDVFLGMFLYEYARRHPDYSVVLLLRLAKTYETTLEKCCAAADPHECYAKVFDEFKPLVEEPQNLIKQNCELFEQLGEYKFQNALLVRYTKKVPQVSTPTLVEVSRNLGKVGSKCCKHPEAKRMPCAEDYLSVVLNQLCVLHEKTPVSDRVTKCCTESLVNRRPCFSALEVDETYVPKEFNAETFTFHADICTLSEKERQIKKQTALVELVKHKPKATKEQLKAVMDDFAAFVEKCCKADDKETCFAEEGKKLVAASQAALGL

[4] = in vitro, previous reports; cited from earlier work
CCR7 [5] = biological target: T2, CCR7 (Mus musculus, UniProt P47774); assay: Trans-well chemotaxis assay, primary murine T cells; assay type: cell-based
T2 construct: confirm that hits identified in the HTS were active against native CCR7; endogenous in cells; host or cells: primary naive (CD25neg) T cells from C57BL/6 mice
T2 sequence (P47774 25-378): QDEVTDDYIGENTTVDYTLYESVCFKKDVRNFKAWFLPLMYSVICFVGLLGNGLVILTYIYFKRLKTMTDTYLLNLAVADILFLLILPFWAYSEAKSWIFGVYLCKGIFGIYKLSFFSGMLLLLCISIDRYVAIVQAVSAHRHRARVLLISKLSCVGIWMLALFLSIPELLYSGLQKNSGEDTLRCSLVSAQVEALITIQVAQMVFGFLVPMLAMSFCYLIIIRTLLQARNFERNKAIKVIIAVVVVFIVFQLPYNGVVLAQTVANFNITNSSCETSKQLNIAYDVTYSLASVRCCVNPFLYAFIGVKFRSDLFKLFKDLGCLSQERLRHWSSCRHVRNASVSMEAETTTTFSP
Protocol: FIGS. 1A-1D show cosalane impairs CCR7 driven human and murine chemotaxis. (A, B) Chemotaxis media with or without CCL19 (A) or CCL21 (B) was added to the lower chambers of the chemotaxis device. Previously untreated H9 cells were then placed in the upper chambers of the device with or without cosalane at a concentration of 2 μM. The chamber was then placed at 37° C. for 3.5 hours and total H9 migration from each upper to lower chamber determined. (A) *P=0.048 for comparison between H9 cells/30 nM CCL19 and H9 cells/30 nM CCL19/2 μM cosalane by Student's t test. (B) P>0.05 for comparison between H9 cells/200 nM CCL21 and H9 cells/200 nM CCL21/2 μM cosalane. (C, D) Chemotaxis media with or without CCL19 (C) or CCL21 (D) was added to the lower chambers of the chemotaxis device. Previously untreated primary murine T cells were then placed in the upper chambers of the device with or without cosalane at a concentration of 2 μM. Total T cell migration from each upper to lower chamber was then determined. (C) *P=0.029. (D) *P<0.001.
While useful from a screening perspective, our primary reporter assays for the HTS were not physiologic. As a result, it was important to confirm that hits identified in the HTS were active against native CCR7 and could block an actual function mediated by the receptor. For this, we used a well-described trans-well chemotaxis assay system using human H9 cells, a cutaneous T cell lymphoma line known to express high levels of CCR7 and to migrate in response to its ligands (Ott et al., J. Pharmacol. Toxicol. Meth. 51:105 (2005)). In addition, we utilized primary mouse, naïve (CD25^neg) T cells obtained from C57BL/6 mice. As depicted in FIG. 1A, human H9 cells placed in the upper chambers of the chemotaxis device readily migrated through the separating membrane when CCL19 was present in the lower chamber. […] Similarly, murine T cell chemotaxis was also impaired by cosalane in response to both CCL19 and CCL21 (FIGS. 1C-1D).
To evaluate this possibility, human H9 cells were incubated with 10 mcg/ml (13 μM) of cosalane versus DMSO vehicle for one hour and then washed free of the compound. The cells were then placed into the chemotaxis chamber as was done in FIGS. 1A-1D. […] Similar experiments were performed with naïve primary mouse T cells.

[6] = day +14, Tcons incubated 15 μg/ml
[7] = 10 mcg/ml (13 μM), then washed, vs DMSO

CC(C)CCC[C@@H](C)[C@H]1CC[C@H]2[C@@H]3CC[C@H]4C[C@@H](CCC=C(c5cc(Cl)c(O)c(C(=O)O)c5)c5cc(Cl)c(O)c(C(=O)O)c5)CC[C@]4(C)[C@H]3CC[C@]12C [Cosalane, cosalane]
donor Tcon numbers within the spleen, ILN, and MLN (donor Tcon accumulation; 36 hours after transplant, Tcons incubated 15 μg/ml): significant reduction in donor Tcon numbers
donor Tcon accumulation in secondary lymphoid tissues and aGVHD target organs (donor Tcon accumulation; day +7, Tcons incubated 15 μg/ml): no differences in donor Tcon accumulation
donor Tcon accumulation within host lymphoid sites (donor Tcon accumulation; [6]): no differences in donor Tcon accumulation
donor Tcons within the colon and liver (donor Tcon accumulation; [6]): significant reduction in donor Tcons
survival ([1]; human PBMCs incubated 35 μg/ml): most recipients surviving to the end of the study period
survival times ([1]; human PBMCs incubated with cosalane): prolonged survival times
IC50 (CCR7 [2]; ligand CCL19, read-out: Human CCR7 IC50 To CCL19): 207 nM
IC50 (CCR7 [2]; ligand CCL21, read-out: Human CCR7 IC50 To CCL21): 2660 nM
survival times ([3]; Tcons incubated 15 μg/ml in saline): prolonged survival times
survival ([3]; Tcons incubated 30 μg/ml): most recipients surviving to the end of the study period
albumin avidity (serum albumin): high albumin avidity
therapeutic index [4]: > 100
murine T cell chemotaxis in response to CCL19 (CCR7 [5]; 2 μM cosalane in upper chamber): impaired
murine T cell chemotaxis in response to CCL21 (CCR7 [5]; 2 μM cosalane in upper chamber): impaired
primary murine T cell chemotaxis in response to CCL19 after pretreatment (CCR7 [5]; [7]): significantly reduced
primary murine T cell chemotaxis in response to CCL21 after pretreatment (CCR7 [5]; [7]): significantly reduced
